The values that follow come from US11253497B2, “Use of derivatives of polyunsaturated fatty acids as medicaments” (Lipopharma Therapeutics, S.L., priority 2009, dated 2022).

One data set relates to TNF-α. Put plainly: Production of TNF-α in serum of LPS-injected C57BL6/J mice. It is filed as in vivo. Particulars: LPS 20 μg i.p. (100%), 200 mg/kg p.o. An outline of the steps:
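C57BL6/J mice given intraperitoneal LPS (20 μg) to induce inflammation, then dosed orally with derivatives at 200 mg/kg. Serum TNF-α measured.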

Data set [1] in a line: Lamellar-to-hexagonal (HII) transition temperature in DEPE model membranes by Differential Scanning Calorimetry. It is filed as physicochemical. Particulars: for Temperature of lamellar-to-hexagonal transition: DEPE membranes, DEPE:D-PUFA 10:1 (mol:mol); for Transition temperature (lamellar to HII): DEPE (4 mM), 200 μM compound, series A, control 64.5. An outline of the steps:
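Lamellar-to-HII transition temperature of DEPE membranes measured by differential scanning calorimetry, with DEPE:fatty acid at 10:1 mol:mol. Control membranes contained no fatty acid.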
(In general: Differential scanning calorimetry records heat flow against a reference as temperature is scanned.)

The subject of data set [2] is apolipoprotein AI (apoA-I). The experiment in a line: Levels of apoA-I in SHR rats (RT-PCR). It is filed as in vivo, rat. The conditions noted are these: 200 mg/kg day p.o., 30 days, before treatment 100%. Put shortly: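 SHR rats dosed orally at 200 mg/kg day for 30 days against water vehicle. At study end, blood pressure taken non-invasively by tail cuff and apoA-I assessed as gene expression by RT-PCR.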

The subject of a further data set is COX-2. Put plainly: Expression of COX-2 in LPS-stimulated monocytes in culture. The class given is cell-based, human. The conditions noted are these: positive control with LPS 100%. Put shortly: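 Cultured monocytes stimulated with LPS; COX-2 protein level expressed as % inhibition relative to the LPS-only positive control (100%).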
Data set [3] deals with breast cancer cells MDA-MB-231. The experiment in a line: Growth of breast cancer cells MDA-MB-231. It is filed as cell-based. The conditions noted are these: 72 hours of incubation. An outline of the steps:
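Cell counts taken with compound, mean of three independent experiments. Applies to MDA-MB-231.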

The next data set has as its system lung cancer cells A549. Put plainly: Growth of lung cancer cells A549 (IC50). It is filed as cell-based, human. The conditions noted are these: 72 hours of incubation. Put shortly:
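Cell counts taken with compound, mean of three independent experiments. Applies to A549 (RPMI 1640, 10% FBS, 37 °C, 5% CO2).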

As usually defined, the IC50 is the concentration at which inhibition is half-maximal. Higher therefore signals weaker potency. Consider `CCC=CCC=CCC=CCCCCCCC(O)C(=O)[O-].[Na+]` (stereo not drawn) [183B1], for which the “Production of TNF-α in serum” value in the data set with TNF-α worked out at 81%. For the same compound, the Temperature of lamellar-to-hexagonal transition in data set [1] is 51.9 °C. Besides, the “Levels of apoA-I” value in data set [2] came out at 151%. The “COX-2 protein levels (expression), percentages of inhibition compared to positive control” value in the data set on COX-2 came out at 33%. Further, the IC50 came out at 267 µM in data set [3] and 195 µM in the data set on lung cancer cells A549.
On to `CCC=CCC=CCC=CCC=CCC=CCCC(O)C(=O)O` (stereo not drawn) [205A1, 2-hydroxy-5,8,11,14,17-eicosapentaenoic acid], for which the “Production of TNF-α in serum” value in the data set with TNF-α came out at 56%. The compound also registered a Transition temperature (lamellar to HII) in data set [1] of 47.9 °C. Moreover, the “Levels of apoA-I” value in data set [2] worked out at 346%. Moreover, the “COX-2 protein levels (expression), percentages of inhibition compared to positive control” value in the data set on COX-2 is 31%. Moreover, the concentration for half-maximal inhibition (IC50) in data set [3] (Homo sapiens, MDA-MB-231) amounted to 390 µM; with lung cancer cells A549 (Homo sapiens, A549), 394 µM.
As for `CCC=CCC=CCC=CCC=CCC=CCCC(O)C(=O)[O-].[Na+]` (stereo not drawn) [205B1], the “Production of TNF-α in serum” value in the data set on TNF-α is listed as 69%. In data set [1], the Temperature of lamellar-to-hexagonal transition is 48.3 °C. In addition, the “Levels of apoA-I” value in data set [2] worked out at 264%. Moreover, in the data set on COX-2, the “COX-2 protein levels (expression), percentages of inhibition compared to positive control” value is 39%. The IC50 in data set [3] is 208 µM; in the data set with lung cancer cells A549, 202 µM.
`CCC=CCC=CCC=CCC=CCC=CCC=CCC(O)C(=O)O` (stereo not drawn) [226A1]: in the data set with TNF-α, the “Production of TNF-α in serum” value was 73%. The compound also returned a Transition temperature (lamellar to HII) in data set [1] of 44.4 °C. The “Levels of apoA-I” value in data set [2] is on record as 324%. The “COX-2 protein levels (expression), percentages of inhibition compared to positive control” value with COX-2 is 23%. The half-inhibitory concentration (IC50) in data set [3] came out at 187 µM; in the data set on lung cancer cells A549 it was 195 µM.
